# Test results: patent US12662491B2 (Redona Therapeutics, Inc., priority 2020, dated 2026)
# Molecular target: T1, Zcchc11 enzyme (Homo sapiens, UniProt Q5TAX3)
# T1 construct: made in house; host or cells: HEK293 cells (Zcchc11); E. coli Rosetta II (LIN28A)
# T1 sequence (Q5TAX3 212-1420): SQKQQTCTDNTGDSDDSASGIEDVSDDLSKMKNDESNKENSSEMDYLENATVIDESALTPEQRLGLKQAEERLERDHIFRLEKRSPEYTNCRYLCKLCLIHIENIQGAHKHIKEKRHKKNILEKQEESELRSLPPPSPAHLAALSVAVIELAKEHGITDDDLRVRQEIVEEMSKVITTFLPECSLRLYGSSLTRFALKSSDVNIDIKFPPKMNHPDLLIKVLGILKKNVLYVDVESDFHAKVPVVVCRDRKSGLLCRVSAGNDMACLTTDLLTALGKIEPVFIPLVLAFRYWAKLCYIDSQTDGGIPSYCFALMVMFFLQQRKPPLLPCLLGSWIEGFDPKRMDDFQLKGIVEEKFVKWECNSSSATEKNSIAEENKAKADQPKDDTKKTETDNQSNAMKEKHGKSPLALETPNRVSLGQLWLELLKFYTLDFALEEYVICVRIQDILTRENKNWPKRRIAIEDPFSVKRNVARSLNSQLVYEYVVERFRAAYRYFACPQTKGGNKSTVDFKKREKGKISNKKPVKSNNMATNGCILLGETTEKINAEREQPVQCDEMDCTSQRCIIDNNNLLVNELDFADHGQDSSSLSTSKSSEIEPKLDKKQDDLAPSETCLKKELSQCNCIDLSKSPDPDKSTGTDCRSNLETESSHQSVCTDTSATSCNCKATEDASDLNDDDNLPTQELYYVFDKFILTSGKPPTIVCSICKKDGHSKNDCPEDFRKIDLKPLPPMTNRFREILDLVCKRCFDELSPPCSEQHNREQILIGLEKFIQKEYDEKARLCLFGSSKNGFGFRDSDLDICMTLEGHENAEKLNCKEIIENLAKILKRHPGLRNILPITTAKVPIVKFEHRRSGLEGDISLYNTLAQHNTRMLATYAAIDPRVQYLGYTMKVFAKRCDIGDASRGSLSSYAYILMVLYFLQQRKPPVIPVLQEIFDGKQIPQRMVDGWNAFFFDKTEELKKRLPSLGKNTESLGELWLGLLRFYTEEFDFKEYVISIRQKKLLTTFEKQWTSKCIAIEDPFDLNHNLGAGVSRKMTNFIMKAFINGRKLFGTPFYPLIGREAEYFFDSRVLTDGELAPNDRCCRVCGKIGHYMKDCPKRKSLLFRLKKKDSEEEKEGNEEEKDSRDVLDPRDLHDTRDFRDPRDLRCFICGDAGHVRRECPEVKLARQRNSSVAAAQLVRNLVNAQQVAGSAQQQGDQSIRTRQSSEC
# Assay: TUTase assay (Zcchc11 assay, Lin28a-dependent polyuridylation of pre-let-7)
# Format: biochemical
# Details: Lin28a-dependent Zcchc11 (Z11) TUTase activity; read-out: Potency Lin28a-dep Z11 IC50
# Procedure, shortened: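 Human Zcchc11 residues 212-1420 (HEK293-expressed, MBP tag cleaved, C-terminal FLAG) at 0.2 nM, with 10 nM full-length human LIN28A and 2 nM 5′-fluorescein pre-let-7, preincubated with compound 30 min at room temperature. Reaction started with 5 uM UTP plus 4 nM 3′-rhodamine A20 quench probe; fluorescein loss read kinetically, IC50 from initial rates.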
row,SMILES,IC50 [µM]
1,"CO/N=C1\CCN(c2cc3c(cc2Cl)c(=O)c(C(=O)O)cn3-c2ccc(N3CC(N(C)C)C3)nc2)C1COc1nc(OC)ccc1Cl (centres unmarked) [Compound 233, (E)-6-chloro-7-(2-(((3-chloro-6-methoxy-pyridin-2-yl)oxy)methyl)-3-(methoxyimino)pyrrolidin-1-yl)-1-(6-(3-(dimethyl-amino)azetidin-1-yl)pyridin-3-yl)-4-oxo-1,4-dihydro-quinoline-3-carboxylic acid]",≤ 1
2,"O=C(O)c1cn(-c2ccc3c(c2)CNC3)c2cc(N3CCC[C@@H]3COc3ncccc3Cl)c(Cl)cc2c1=O [Compound 236, 6-chloro-7-[(2R)-2-[[(3-chloropyridin-2-yl)oxy]methyl]pyrrolidin-1-yl]-1-(2,3-dihydro-1H-isoindol-5-yl)-4-oxoquinoline-3-carboxylic acid]",≤ 1
3,"CC(=O)N1Cc2ccc(-n3cc(C(=O)O)c(=O)c4cc(Cl)c(N5CCC[C@@H]5COc5ncccc5Cl)cc43)cc2C1 [Compound 237, 1-(2-acetyl-1,3-dihydro-isoindol-5-yl)-6-chloro-7-[(2R)-2-[[(3-chloropyridin-2-yl)oxy]methyl]pyrrolidin-1-yl]-4-oxoquinoline-3-carboxylic acid]",≤ 1
4,"O=C(O)c1cn(-c2cnc(OCCO)cn2)c2cc(N3CCC[C@@H]3COc3ncccc3Cl)c(Cl)cc2c1=O [Compound 238, 6-chloro-7-[(2R)-2-[[(3-chloropyridin-2-yl)oxy]methyl]pyrrolidin-1-yl]-1-[5-(2-hydroxy-ethoxy)pyrazin-2-yl]-4-oxoquinoline-3-carboxylic acid]",≤ 1
5,"O=C(O)c1cn(-c2cnn(C3CN(CC(F)(F)F)C3)c2)c2cc(N3CCC[C@@H]3COc3ncccc3Cl)c(Cl)cc2c1=O [Compound 239, 6-chloro-7-[(2R)-2-[[(3-chloropyridin-2-yl)oxy]methyl]pyrrolidin-1-yl]-4-oxo-1-[1-[1-(2,2,2-trifluoro-ethyl)azetidin-3-yl]pyrazol-4-yl]quinoline-3-carboxylic acid]",≤ 1
6,"O=C(O)c1cn(-c2cnccn2)c2cc(N3CCC[C@@H]3COc3ncccc3Cl)c(F)cc2c1=O [Compound 240, 7-[(2R)-2-[[(3-chloropyridin-2-yl)oxy]methyl]pyrrolidin-1-yl]-6-fluoro-4-oxo-1-(pyrazin-2-yl)quinoline-3-carboxylic acid]",≤ 1
7,CCN1CC(n2cc(-n3cc(C(=O)O)c(=O)c4cc(Cl)c(N5CCC[C@@H]5COc5ncccc5Cl)cc43)cn2)C1 [Compound 241],≤ 1
8,"COCCn1cc(-n2cc(C(=O)O)c(=O)c3cc(C#N)c(N4CCC[C@@H]4COc4ncccc4Cl)cc32)cn1 [Compound 242, 7-[(2R)-2-[[(3-chloropyridin-2-yl)oxy]methyl]pyrrolidin-1-yl]-6-cyano-1-[1-(2-methoxyethyl)pyrazol-4-yl]-4-oxoquinoline-3-carboxylic acid]",≤ 1
9,"O=C(O)c1cn(-c2cnn(C3CNC3)c2)c2cc(N3CCC[C@@H]3COc3ncccc3Cl)c(Cl)cc2c1=O [Compound 243, 1-[1-(azetidin-3-yl)pyrazol-4-yl]-6-chloro-7-[(2R)-2-[[(3-chloropyridin-2-yl)oxy]methyl]pyrrolidin-1-yl]-4-oxoquinoline-3-carboxylic acid]",≤ 1
10,"O=C(O)c1cn(-c2cnn(C3CN(CCF)C3)c2)c2cc(N3CCC[C@@H]3COc3ncccc3Cl)c(Cl)cc2c1=O [Compound 244, 6-chloro-7-[(2R)-2-[[(3-chloropyridin-2-yl)oxy]methyl]pyrrolidin-1-yl]-1-[1-[1-(2-fluoroethyl)azetidin-3-yl]pyrazol-4-yl]-4-oxoquinoline-3-carboxylic acid]",≤ 1
11,"O=C(O)c1cn(-c2cnn(C3CNC3)c2)c2cc(N3CCC[C@@H]3COc3ncccc3F)c(Cl)cc2c1=O [Compound 246, 1-[1-(azetidin-3-yl)pyrazol-4-yl]-6-chloro-7-[(2R)-2-[[(3-fluoropyridin-2-yl)oxy]methyl]pyrrolidin-1-yl]-4-oxoquinoline-3-carboxylic acid]",≤ 1
